Test results reported in US12156880B2, “Heterocyclic RIP1 kinase inhibitors” (Rigel Pharmaceuticals, Inc., priority 2021, dated 2024).

What was measured:
[1] = Brain penetration: free brain/plasma ratio in in vivo pharmacokinetic studies; conditions: brain and plasma (unbound); in vivo pharmacokinetic studies in rodents; read-out: free brain/plasma ratio (Bu/Pu)
Method: Female C57BL/6 mice are randomly grouped and weighed on Day −1. On the day of the study (Day 0), mice are administered vehicle or test article by oral gavage. Fifteen minutes after oral administration of test agents, each mouse is administered an intraperitoneal (IP) injection of solution containing recombinant human tumor necrosis factor alpha (TNF-a, 25.0 μg) and zVAD-FMK (200 μg). Body temperature is measured at 0 hours (before IP injections) and every hour via rectal probe temperature measuring device. Three (3) hours after IP injections of TNF-a and zVAD/FMK, mice are euthanized by CO2 asphyxiation and blood is collected via cardiac puncture. Serum and plasma are harvested for determination of cytokine and compound levels, respectively. Separate groups of mice (satellite mice) are included for the determination of compound levels in plasma at the time of administration of TNFa/zVAD-FMK. […] Brain penetration may be assessed by evaluating free brain/plasma ratio (Bu/Pu) as measured in vivo pharmacokinetic studies in rodents. […] In this method, the passive membrane permeability (Papp) and the P-gp (P-glycoprotein) substrate efflux potential are determined using a MDCKII-MDR1 cell line as an in vitro model of the effective permeability of a compound through the BBB.

L929 cells = experiment: L929 cell necroptosis assay (TNFa + zVAD, CellTiter-Glo recovery); assay type: cell-based, murine; conditions: Mus musculus, L929, 18 h, TNFa 2 ng/mL + zVAD-fmk, read-out: L929-CTG-recovery, L929, TNFa + zVAD (IC50)
Procedure, shortened: (§1)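 Human U937 (50K/well, 60 uM zVAD-fmk medium, plated same day) or murine L929 (10K/well, plated 18 h, then 40 uM zVAD-fmk medium) were grown in RPMI with 10% FBS. Both were pretreated with compound for 1 h at 37 °C before TNFa at 2 ng/mL final. Viability was read by CellTiter-Glo luminescence after 18 h.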

U937 cells = experiment: U937 cell necroptosis assay (TNFa + zVAD, CellTiter-Glo recovery); assay type: cell-based; conditions: Homo sapiens, U-937, 18 h, TNFa 2 ng/mL + zVAD-fmk, read-out: U937 Zvad TNF CTG Recovery, U937, TNFa + zVAD (IC50)
Procedure, shortened: as §1

RIPK1 = target: T1, RIPK1 (Homo sapiens, UniProt Q13546); experiment: RIPK1 ADP-Glo biochemical kinase assay; conditions: read-out: RIPK1 ADP-Glo Kinase (IC50)
T1 sequence (Q13546 1-671): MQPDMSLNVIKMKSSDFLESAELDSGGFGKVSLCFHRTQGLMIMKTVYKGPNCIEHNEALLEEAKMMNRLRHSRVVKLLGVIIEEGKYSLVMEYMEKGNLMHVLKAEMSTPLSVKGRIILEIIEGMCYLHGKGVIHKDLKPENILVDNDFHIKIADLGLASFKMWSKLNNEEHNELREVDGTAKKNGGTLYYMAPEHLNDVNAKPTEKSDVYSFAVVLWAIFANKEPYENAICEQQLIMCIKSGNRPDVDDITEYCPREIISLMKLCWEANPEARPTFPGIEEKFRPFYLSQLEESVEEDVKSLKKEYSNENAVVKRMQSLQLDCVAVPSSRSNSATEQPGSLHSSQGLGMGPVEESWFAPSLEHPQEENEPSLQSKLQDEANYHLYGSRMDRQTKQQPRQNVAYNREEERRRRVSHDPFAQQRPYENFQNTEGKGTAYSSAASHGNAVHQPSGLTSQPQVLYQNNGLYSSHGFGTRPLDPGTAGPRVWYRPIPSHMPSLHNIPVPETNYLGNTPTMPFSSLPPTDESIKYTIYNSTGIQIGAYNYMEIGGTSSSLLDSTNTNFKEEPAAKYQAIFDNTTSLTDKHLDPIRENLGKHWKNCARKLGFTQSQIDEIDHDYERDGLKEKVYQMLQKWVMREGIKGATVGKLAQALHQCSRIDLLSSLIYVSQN
Procedure, shortened: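 RIPK1 at 31 ng/well in Tris pH 7.4 buffer with MgCl2, BSA, DTT and MnCl2, reacted with compounds (duplicate) for 30 min at 30 °C. ADP formed detected by ADP-Glo: 40 min stop/depletion, then 30 min detection reagent at room temperature; luminescence read.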

Cc1cccc(Cc2cnn(C(=O)N[C@H]3COc4ccc(C#CC5CCOCC5)cc4N(C)C3=O)c2)n1 [I-104, (S)—N-(5-Methyl-4-oxo-7-((tetrahydro-2H-pyran-4-yl)ethynyl)-2,3,4,5-tetrahydrobenzo[b][1,4]oxazepin-3-yl)-4-((6-methylpyridin-2-yl)methyl)-1H-pyrazole-1-carboxamide]
Kp,uu (unbound brain/plasma ratio) [1]: 1.7 | IC50 (L929 cells): 190 nM | IC50 (U937 cells): 7.3 nM | IC50 (RIPK1): 16.4 nM

Cc1cccc(Cc2cnn(C(=O)N[C@H]3CCc4ccc(C#CC5(O)COC5)cc4N(C)C3=O)c2)n1 [I-120, (S)—N-(8-((3-Hydroxyoxetan-3-yl)ethynyl)-1-methyl-2-oxo-2,3,4,5-tetrahydro-1H-benzo[b]azepin-3-yl)-4-((6-methylpyridin-2-yl)methyl)-1H-pyrazole-1-carboxamide]
Kp,uu (unbound brain/plasma ratio) [1]: 11 | IC50 (L929 cells): 233 nM | IC50 (U937 cells): 9.5 nM | IC50 (RIPK1): 17.2 nM

CN1C(=O)[C@@H](NC(=O)c2cc(Oc3cnn(C)c3)ccn2)COc2ccc(C#CC(C)(C)C)cc21 [I-132, (S)—N-(7-(3,3-dimethylbut-1-yn-1-yl)-5-methyl-4-oxo-2,3,4,5-tetrahydrobenzo[b][1,4]oxazepin-3-yl)-4-((1-methyl-1H-pyrazol-4-yl)oxy)picolinamide]
IC50 (L929 cells): 71.8 nM | IC50 (U937 cells): 4.1 nM | IC50 (RIPK1): 24.2 nM

CN1C(=O)[C@@H](NC(=O)c2cc(Oc3cnn(C)c3)ccn2)COc2ccc(C#CC3(O)CCC3)cc21 [I-133, (S)—N-(7-((1-hydroxycyclobutyl)ethynyl)-5-methyl-4-oxo-2,3,4,5-tetrahydrobenzo[b][1,4]oxazepin-3-yl)-4-((1-methyl-1H-pyrazol-4-yl)oxy)picolinamide]
IC50 (L929 cells): 58.2 nM | IC50 (U937 cells): 5.2 nM | IC50 (RIPK1): 14 nM

CN1C(=O)[C@@H](NC(=O)c2cc(Oc3cnn(C)c3)ccn2)COc2ccc(C#CC3CCOCC3)cc21 [I-136, (S)-4-((1-methyl-1H-pyrazol-4-yl)oxy)-N-(5-methyl-4-oxo-7-((tetrahydro-2H-pyran-4-yl)ethynyl)-2,3,4,5-tetrahydrobenzo[b][1,4]oxazepin-3-yl)picolinamide]
IC50 (L929 cells): 5.4 nM | IC50 (U937 cells): 0.7 nM | IC50 (RIPK1): 7.7 nM

CN1C(=O)[C@@H](NC(=O)c2cc(Cc3cocn3)ccn2)COc2ccc(C#CC(C)(C)O)cc21 [I-137, (S)—N-(7-(3-hydroxy-3-methylbut-1-yn-1-yl)-5-methyl-4-oxo-2,3,4,5-tetrahydrobenzo[b][1,4]oxazepin-3-yl)-4-(oxazol-4-ylmethyl)picolinamide]
IC50 (L929 cells): 87.4 nM | IC50 (U937 cells): 25.5 nM | IC50 (RIPK1): 11.9 nM
